Series [1] relates to Fusobacterium nucleatum. Nature of the series: Antibacterial activity against Fusobacterium nucleatum ATCC 23726 assessed as bacterial growth inhibition incubated for 48 hrs by broth dilution susceptibility test. It counts as functional. For orientation: Dilution methods test growth across graded concentrations, often in twofold steps.
In the next series the test system is MC-38. Nature of the series: Antiproliferative activity against mouse MC-38 cells assessed as inhibition of cell growth incubated for 48 hrs by CCK-8 assay. It counts as functional, cell-based. As to conditions: MC-38, 48 h. A general note: Tetrazolium assays rely on reduction of a dye to a coloured formazan, in cell work by metabolically active cells.
In the next series the test system is HCT-116. Nature of the series: Antiproliferative activity against human HCT-116 cells assessed as inhibition of cell growth incubated for 48 hrs by CCK-8 assay. Type of series: functional, cell-based. The settings on record: HCT-116, 48 h.
Series [2] can be described thus: Cytotoxicity against HUVEC cells assessed as inhibition of cell growth incubated for 48 hrs by CCK-8 assay. It counts as toxicity, cell-based. The settings on record: human.
Series [3] can be described thus: Cytotoxicity against human L02 cells assessed as inhibition of cell growth incubated for 48 hrs by CCK-8 assay. It counts as toxicity, cell-based.
In series [4] the test system is Fusobacterium nucleatum. In words: Antibacterial activity against Fusobacterium nucleatum ATCC 23726 assessed as bacterial growth inhibition at 4 ug/ml incubated for 72 hrs by turbidimeter analysis. Type of series: functional, organism-based. As to conditions: dose 4.0 µg/ml.
Series [5] relates to Fusobacterium nucleatum. Nature of the series: Antibacterial activity against Fusobacterium nucleatum ATCC 23726 assessed as bacterial growth inhibition incubated for 72 hrs by turbidimeter analysis. Type of series: functional, organism-based.
Series [6] concerns Fusobacterium nucleatum. In words: Antibiofilm activity against Fusobacterium nucleatum ATCC 23726 assessed as inhibition of biofilm formation incubated for 48 hrs by crystal violet staining based assay. It counts as functional, organism-based. The settings on record: dose 0.5-16 µg/ml.
The subject of another series is Escherichia coli. Nature of the series: Antibacterial activity against Escherichia coli […] assessed as bacterial growth inhibition incubated for 48 hrs by broth dilution susceptibility test. It counts as functional.
For the next series, the system named is Enterococcus faecalis. In words: Antibacterial activity against Enterococcus faecalis ATCC 29212 assessed as bacterial growth inhibition incubated for 48 hrs by broth dilution susceptibility test. It counts as functional.
The test system of another series is Staphylococcus aureus. Nature of the series: Antibacterial activity against Staphylococcus aureus ATCC 6538 assessed as bacterial growth inhibition incubated for 48 hrs by broth dilution susceptibility test. It counts as functional.
Series [7] deals with Peptostreptococcus anaerobius. In words: Antibacterial activity against Peptostreptococcus anaerobius ATCC 27337 assessed as bacterial growth inhibition incubated for 48 hrs by broth dilution susceptibility test. Type of series: functional.
The subject of a further series is Akkermansia muciniphila. Nature of the series: Antibacterial activity against Akkermansia muciniphila ATCC BAA-835 assessed as bacterial growth inhibition incubated for 48 hrs by broth dilution susceptibility test. Type of series: functional.
Series [8] relates to Salmonella enterica subsp. enterica serovar Paratyphi B. Nature of the series: Antibacterial activity against Salmonella paratyphi B ATCC CMCC50094 assessed as bacterial growth inhibition incubated for 48 hrs by broth dilution susceptibility test. Type of series: functional.
The subject of another series is Shigella flexneri. Nature of the series: Antibacterial activity against Shigella flexneri ATCC 12022 assessed as bacterial growth inhibition incubated for 48 hrs by broth dilution susceptibility test. It counts as functional.
Series [9] deals with Lactobacillus acidophilus. Nature of the series: Antibacterial activity against Lactobacillus acidophilus ATCC CGMCC 1.577 assessed as bacterial growth inhibition incubated for 48 hrs by broth dilution susceptibility test. Type of series: functional.

In brackets after ≈: the same amount, converted by molar mass. Activity calls are given as the source filed them. No cut-off for these calls is given here. A value given as a limit tells only on which side of the number the result lay.

For the compound `Cc1cc(=O)oc2ccc(OC(=O)c3ccc([N+](=O)[O-])c(F)c3)cc12`, the MIC50 – broadly, the lowest concentration that inhibits either 50% of growth or 50% of the strains tested, depending on the study – with Fusobacterium nucleatum [1] was above 64 µg/mL. Turning to `O=C(Cn1cnc(=O)c2ccc(Cl)cc21)Nc1ccc([N+](=O)[O-])cc1Cl`, the MIC50 in the series on Fusobacterium nucleatum [1] is 64 µg/mL (≈ 163 µM). Same read-out and setting: with `O=C1OCCN1/N=C/c1ccc([N+](=O)[O-])o1` [FURAZOLIDONE] the figure was 16 µg/mL (≈ 71.1 µM); with `CC1CS(=O)(=O)CCN1/N=C/c1ccc([N+](=O)[O-])o1` (stereo unspecified) [NIFURTIMOX], 16 µg/mL (≈ 55.7 µM); with `CS(=O)(=O)c1ccc(C(=O)C2C(=O)CCCC2=O)c([N+](=O)[O-])c1` [MESOTRIONE], 32 µg/mL (≈ 94.3 µM). For `O=[N+]([O-])c1ccc(COc2ccc([N+](=O)[O-])c(C(F)(F)F)c2)o1`, the MIC50 with Fusobacterium nucleatum [1] was 4 µg/mL (≈ 12 µM); in the series on Escherichia coli it was 64 µg/mL (≈ 193 µM); in the series on Enterococcus faecalis it was 64 µg/mL (≈ 193 µM); with Staphylococcus aureus it was 64 µg/mL (≈ 193 µM); in series [7], 32 µg/mL (≈ 96.3 µM); in the series on Akkermansia muciniphila, above 64 µg/mL. Besides, the values for the MIC50 (in series [8]; with Shigella flexneri; in [9]) were 64 µg/mL (≈ 193 µM), above 64 µg/mL and above 64 µg/mL, respectively. Also, the IC50 (in general, the concentration that gives 50% inhibition) in the series with MC-38 was determined as 38 µM; in the series on HCT-116 it was 52 µM. Besides, the IC50 at 48 h turned out to be 9.6 µM in series [2] and 21 µM in series [3]. In addition, the result with Fusobacterium nucleatum [4] was Active. Moreover, the Activity result in the series with Fusobacterium nucleatum [5] is “Dose-Dependent Effect”. Moreover, the inhibition entry with Fusobacterium nucleatum [6] is “Dose-Dependent Effect”. Take `O=C(Nc1cc(Cl)cc([N+](=O)[O-])c1)c1ccc(C(F)(F)F)cc1[N+](=O)[O-]`: the MIC50 in the series on Fusobacterium nucleatum [1] was above 64 µg/mL. For `O=C(Nc1ccon1)c1ccc([N+](=O)[O-])c(Br)c1`, the MIC50 with Fusobacterium nucleatum [1] was above 64 µg/mL.

Turning to `CN(N=O)C(=O)N[C@@H](C=O)[C@@H](O)[C@H](O)[C@H](O)CO` [STREPTOZOCIN], in the series on Fusobacterium nucleatum [1], the MIC50 turned out to be 0.125 µg/mL (≈ 0.471 µM). With `O=C1NCCN1CCN1CCC(c2cn(-c3ccc(F)cc3)c3ccc(Cl)cc23)CC1` [SERTINDOLE], in the series with Fusobacterium nucleatum [1], the MIC50 worked out at 16 µg/mL (≈ 36.3 µM). The same measure, in the same setting: with `CS(=O)(=O)c1ccc(C(=O)C2C(=O)CCCC2=O)c(Cl)c1COCC(F)(F)F` [TEMBOTRIONE] the figure was above 64 µg/mL; with `NC(=O)c1ccc(NC(=O)c2ccc(C(F)(F)F)cc2[N+](=O)[O-])cc1`, above 64 µg/mL.

Regarding `O=C(NCc1ccncc1)c1ccc(C(F)(F)F)cc1[N+](=O)[O-]`, the MIC50 with Fusobacterium nucleatum [1] came out at 64 µg/mL (≈ 197 µM). On to `NC(=O)c1ccc(NC(=O)c2ccc(C(F)(F)F)cc2)cc1`, for which the MIC50 in the series on Fusobacterium nucleatum [1] is above 64 µg/mL. With `Cc1ccc(OC(=O)c2ccc(C(F)(F)F)cc2[N+](=O)[O-])c(C(N)=O)c1`, in the series on Fusobacterium nucleatum [1], the MIC50 is 64 µg/mL (≈ 174 µM). With `O=C(Nc1ccon1)c1ccc([N+](=O)[O-])cc1I`, the MIC50 in the series on Fusobacterium nucleatum [1] is above 64 µg/mL.

The record behind these values is ChEMBL document CHEMBL5375955, “Discovery of New Fusobacterium nucleatum Inhibitors to Attenuate Migratory Capability of Colon Cancer Cells by the Drug Repositioning Strategy” (J Med Chem, 2023).
